In US20070049538A1, “METHODS FOR USING CUCURBITACIN COMPOUNDS” (SOUTH DAKOTA STATE UNIVERSITY, priority 2005, published 2007):

Experiments:
HepG2 cells = assay: Cucurbitacins cytotoxicity on HepG2 cells (MTT viability assay); type: cell-based, human
[1] = Chromatographic hydrophobicity index (CHI) by RP-HPLC in buffered acetonitrile; type: physicochemical; design: key: CHI = φ0 (isocratic hydrophobicity index), = A·tR + B; ACN % scale; settings: for CHIACN1: buffered acetonitrile pH 7.0, Alltima C18 250 mm, Eq. (2) from isocratic φ0; for CHIACN2: buffered acetonitrile pH 7.0, Eq. (3) calibrated against published CHI
[2] = Chromatographic hydrophobicity index (CHI) by RP-HPLC in buffered methanol; type: physicochemical; settings: buffered methanol pH 7.0, Econosil C18 150 mm, Eq. (4)
HSC-T6 cells [3] = assay: Serum-driven HSC-T6 proliferation, experiment 3 (24 h, proliferating cells); type: cell-based, rat; settings: HSC-T6, 24 h, proliferating cells; read-out: Experiment 3 EC50 (A)
HSC-T6 cells [4] = assay: Cytotoxicity on HSC-T6 cells (experiment 3); type: cell-based, rat; settings: read-out: Experiment 3 IC50 (T)
Excerpt: Cytotoxicity of all cucurbitacin analogs was additionally measured in experiment 3 (Table 8).

For `CC(=O)OC(C)(C)/C=C/C(=O)[C@](C)(O)[C@H]1[C@H](O)C[C@@]2(C)[C@@H]3CC=C4[C@H](C[C@H](O)C(=O)C4(C)C)[C@]3(C)C(=O)C[C@]12C` [B, cucurbitacin B], the IC50 (HepG2 cells; Table 4, 24 h incubation, MTT) was 27.7 ± 9 µM, the IC50 (HepG2 cells; Table 5) was 27.7 ± 9 µM and the IC50 (HepG2 cells; Table 7) was 27.7 µM. For the same molecule, the CHIACN1 [1] was 70.93, the CHIACN2 [1] was 75.40 and the CHIMeOH [2] was 67.33. The EC50 (HSC-T6 cells [3]) was 0.02 µM and the IC50 (HSC-T6 cells [4]) was 4.4 µM.

Molecule `CC(=O)OC(C)(C)/C=C/C(=O)[C@](C)(O)[C@H]1[C@H](O)C[C@@]2(C)[C@@H]3CC=C4[C@@H](C=C(O[C@@H]5O[C@H](CO)[C@@H](O)[C@H](O)[C@H]5O)C(=O)C4(C)C)[C@]3(C)C(=O)C[C@]12C` [E-Gluc, cucurbitacin E glucoside] has an IC50 (HepG2 cells; Table 4, 24 h incubation, MTT) of 227 ± 15.3 µM, an IC50 (HepG2 cells; Table 5) of 227 ± 15.5 µM and an IC50 (HepG2 cells; Table 7) of 227 µM. For the same molecule, the CHIACN1 [1] was 53.98, the CHIACN2 [1] was 49.13 and the CHIMeOH [2] was 62.27. The EC50 (HSC-T6 cells [3]) was 3.28 µM and the IC50 (HSC-T6 cells [4]) was 102 µM.

In the case of Cucurbitacin E-Me ether, the IC50 (HepG2 cells; Table 4, 24 h incubation, MTT) is reported as 12 ± 3 µM, the IC50 (HepG2 cells; Table 5) is reported as 12 ± 3 µM and the IC50 (HepG2 cells; Table 7) is reported as 12 µM. For the same molecule, the CHIACN1 [1] was 77.84, the CHIACN2 [1] was 86.09 and the CHIMeOH [2] was 71.55. It also gave an EC50 (HSC-T6 cells [3]) of 0.08 µM and an IC50 (HSC-T6 cells [4]) of 2.8 µM.

With cucurbitacin E the IC50 (HepG2 cells; Table 4, 24 h incubation, MTT) was 15.3 µM, the IC50 (HepG2 cells; Table 5) was 15.3 ± 6.6 µM and the IC50 (HepG2 cells; Table 7) was 15.3 µM. For the same molecule, the CHIACN1 [1] was 75.92, the CHIACN2 [1] was 83.13 and the CHIMeOH [2] was 69.6!^. For the same molecule, the EC50 (HSC-T6 cells [3]) was 0.04 µM.
